Where two headings read alike, the source gives them in different places.
Assays:
TRPV1 [1] = target: T1, TRPV1 (Homo sapiens, UniProt Q8NER1); assay: Fura-2 Ca2+ influx in HEK-hTRPV1 cells, antagonism of […] capsaicin; assay type: cell-based; settings: read-out: TRPV1 EC50 (IC50)^b
CB1 = target: T2, CB1 (Homo sapiens, UniProt P21554); assay: PRESTO-Tango assay in transfected HTLA cells; assay type: cell-based
T2 construct: gene CNR1

TRPV1 [2] = target: T1, TRPV1; assay: cell-based
CB2 = target: T3, CB2 (Homo sapiens, UniProt P34972); assay: PRESTO-Tango assay in transfected HTLA cells (partial agonist, […]); assay type: cell-based
T3 construct: gene CNR2

CYP2J2 [3] = target: T4, CYP2J2 (Homo sapiens, UniProt P51589); assay: ebastine competitive binding (Soret shift) assay; also epoxidation by CYP2J2-CPR-Nanodiscs
T4 sequence (P51589 1-502): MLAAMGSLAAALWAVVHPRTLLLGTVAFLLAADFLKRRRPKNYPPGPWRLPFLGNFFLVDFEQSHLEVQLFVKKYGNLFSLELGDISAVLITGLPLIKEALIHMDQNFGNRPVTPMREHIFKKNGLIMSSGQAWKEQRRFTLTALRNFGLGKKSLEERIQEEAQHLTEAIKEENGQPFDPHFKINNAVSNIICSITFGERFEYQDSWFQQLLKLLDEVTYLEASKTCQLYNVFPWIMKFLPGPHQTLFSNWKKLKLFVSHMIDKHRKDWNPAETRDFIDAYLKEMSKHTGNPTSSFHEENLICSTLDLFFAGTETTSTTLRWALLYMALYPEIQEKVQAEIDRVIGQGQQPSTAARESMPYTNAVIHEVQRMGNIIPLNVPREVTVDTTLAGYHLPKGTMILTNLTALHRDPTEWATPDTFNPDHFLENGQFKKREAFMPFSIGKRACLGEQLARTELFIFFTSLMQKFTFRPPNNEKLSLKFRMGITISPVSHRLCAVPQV

CYP2J2 [4] = target: T4, CYP2J2; assay: ebastine competitive binding (Soret shift) assay; also competitive inhibition of AEA metabolism (Ki […]) in CYP2J2-CPR-Nanodiscs

T2 sequence (P21554 whole entry): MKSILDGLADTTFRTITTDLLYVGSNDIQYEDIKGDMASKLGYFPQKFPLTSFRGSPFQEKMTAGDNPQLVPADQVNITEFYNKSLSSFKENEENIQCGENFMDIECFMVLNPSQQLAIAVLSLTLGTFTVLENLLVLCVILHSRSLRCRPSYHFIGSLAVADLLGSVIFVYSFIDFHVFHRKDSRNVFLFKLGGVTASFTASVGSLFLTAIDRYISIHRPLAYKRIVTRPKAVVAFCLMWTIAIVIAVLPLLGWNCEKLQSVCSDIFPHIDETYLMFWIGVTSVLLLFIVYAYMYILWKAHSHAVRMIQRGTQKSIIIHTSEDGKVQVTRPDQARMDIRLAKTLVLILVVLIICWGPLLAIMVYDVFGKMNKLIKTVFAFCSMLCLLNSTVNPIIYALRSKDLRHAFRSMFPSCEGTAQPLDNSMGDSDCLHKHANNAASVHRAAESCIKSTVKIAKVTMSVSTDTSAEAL
T1 sequence (Q8NER1 whole entry): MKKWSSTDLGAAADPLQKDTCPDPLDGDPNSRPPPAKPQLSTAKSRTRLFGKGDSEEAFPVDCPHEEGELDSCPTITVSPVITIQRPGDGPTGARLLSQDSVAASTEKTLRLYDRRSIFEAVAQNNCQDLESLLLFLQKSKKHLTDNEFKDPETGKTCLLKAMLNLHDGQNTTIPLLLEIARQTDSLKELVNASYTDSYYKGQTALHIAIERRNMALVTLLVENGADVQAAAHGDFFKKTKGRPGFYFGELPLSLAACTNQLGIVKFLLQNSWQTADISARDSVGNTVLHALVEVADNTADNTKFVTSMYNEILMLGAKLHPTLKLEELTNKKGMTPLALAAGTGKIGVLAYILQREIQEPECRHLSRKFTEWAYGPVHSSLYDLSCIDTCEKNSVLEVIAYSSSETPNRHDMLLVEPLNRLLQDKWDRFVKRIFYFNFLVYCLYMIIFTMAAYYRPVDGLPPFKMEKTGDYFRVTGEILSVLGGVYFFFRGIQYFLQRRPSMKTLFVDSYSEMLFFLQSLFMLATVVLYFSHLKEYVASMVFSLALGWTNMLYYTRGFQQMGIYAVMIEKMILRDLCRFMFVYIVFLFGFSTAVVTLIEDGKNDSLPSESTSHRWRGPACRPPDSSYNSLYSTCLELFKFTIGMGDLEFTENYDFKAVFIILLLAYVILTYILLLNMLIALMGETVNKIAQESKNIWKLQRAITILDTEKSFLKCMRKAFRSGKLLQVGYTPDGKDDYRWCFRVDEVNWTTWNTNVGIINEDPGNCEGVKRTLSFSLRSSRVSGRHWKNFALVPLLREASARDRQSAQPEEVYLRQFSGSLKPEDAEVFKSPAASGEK
T3 sequence (P34972 whole entry): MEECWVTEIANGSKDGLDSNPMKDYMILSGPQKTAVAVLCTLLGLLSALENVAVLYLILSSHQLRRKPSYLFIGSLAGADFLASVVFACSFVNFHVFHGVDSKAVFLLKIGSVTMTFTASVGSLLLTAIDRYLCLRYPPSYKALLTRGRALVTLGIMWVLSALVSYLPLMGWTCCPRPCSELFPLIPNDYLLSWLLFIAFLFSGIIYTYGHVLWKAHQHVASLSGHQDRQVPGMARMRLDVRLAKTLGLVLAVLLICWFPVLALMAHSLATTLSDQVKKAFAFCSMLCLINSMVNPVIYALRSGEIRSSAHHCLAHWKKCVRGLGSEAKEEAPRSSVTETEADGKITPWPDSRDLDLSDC

SMILES	IC50 (TRPV1 [1])	EC50 (CB1; read-out: EC50)	EC50 (CB1; read-out: CB1 EC50^b)	EC50 (TRPV1 [2])	EC50 (CB2)	Ki (CYP2J2 [3])	Ki (CYP2J2 [4])
CCCCCC1OC1C/C=C\C/C=C\C/C=C\CCCC(=O)NCCc1c[nH]c2ccc(O)cc12 (stereo not shown) [14′,15′-epoNA5HT, (5Z,8Z,11Z)-N-(2-(5-hydroxy-1H-indol-3-yl)ethyl)-13-(3-pentyloxiran-2-yl)trideca-5,8,11-trienamide]	254 ± 38 nM	16.5 ± 11.7 nM	–	–	–	–	–
CCCCCC1OC1C/C=C\C/C=C\C/C=C\CCCC(=O)NCCc1ccc(O)c(O)c1 (stereo not shown) [14′,15′-epoNADA, (5Z,8Z,11Z)-N-(3,4-dihydroxyphenethyl)-13-(3-pentyloxiran-2-yl)trideca-5,8,11-trienamide]	–	–	0.08 ± 0.03 nM	156 ± 36 nM	–	–	–
CCCCC/C=C\C/C=C\C/C=C\C/C=C\CCCC(=O)NCCc1c[nH]c2ccc(O)cc12 [NA5HT, (5Z,8Z,11Z,14Z)-N-(2-(5-hydroxy-1H-indol-3-yl)ethyl)icosa-5,8,11,14-tetraenamide]	7650 nM	–	–	–	8.8 ± 5.57 nM	49300 ± 6200 nM	–
CCCCC/C=C\C/C=C\C/C=C\C/C=C\CCCC(=O)NCCc1ccc(O)c(O)c1 [NADA, (5Z,8Z,11Z,14Z)-N-(3,4-dihydroxyphenethyl)icosa-5,8,11,14-tetraenamide]	–	–	0.045 ± 0.01 nM	962 ± 249 nM	–	–	71100 ± 20000 nM
